# Experimental data as given in patent US20240424426A1, “SOLVENTS FOR SELECTIVE COMPLEXATION OF METAL CATIONS” (THE BOARD OF TRUSTEES OF THE UNIVERSITY OF ALABAMA, priority 2023, published 2024).
# Assays:
# [1] = Liquid-liquid extraction of Li^+ from aqueous LiCl/NaCl solution, ion-selective electrode analysis; details: 3 mL neat compound mixed with 3 mL aqueous solution containing 100 ppm LiCl and 100 ppm NaCl; aqueous phase analyzed by ion-selective electrode
# Procedure: (§1) 3 ml of the compound [F·Me·Me] was added neat to 3 mL of an aqueous solution containing 100 ppm LiCl and 100 ppm NaCl. After vigorous mixing of the organic and aqueous phases in a separatory funnel, the phases were separated, and the aqueous phase was analyzed using ion-selective electrodes for both Li^+ and Na^+.
# [2] = Liquid-liquid extraction of Na^+ from aqueous LiCl/NaCl solution, ion-selective electrode analysis; details: 3 mL neat compound mixed with 3 mL aqueous solution containing 100 ppm LiCl and 100 ppm NaCl; aqueous phase analyzed by ion-selective electrode
# Procedure: as §1
smiles,measurement,setting,value
COCCOCC(COCC(F)(F)F)OCCOC (centres unmarked) [[F·Me·Me]],Li^+ extracted by the compound,[1],26.6%
same,Na^+ extracted by the compound,[2],7.3%
